Experimental data taken from article PMC6812009, “Covalent Aurora A regulation by the metabolic integrator coenzyme A” (Redox Biology, 2019).

Columns and labels:
[1] = system: mouse oocytes; assay: Microinjection of mouse oocytes, spindle formation and chromosome alignment; assay type: cell-based; conditions: injected with 3 mM compound, 17 h after GV release
Protocol: Mouse oocytes arrested at the GV stage were injected with different concentrations of CoA (0.15–5 mM). Since the commercial preparation of CoA used for microinjection contained 3 mol of lithium ions per mole of CoA, control oocytes were injected with an equivalent amount of LiCl. In a separate study, oocytes were injected with 3 mM CoA, ADP, AMP, 3′-5′-ADP and pantetheine. To examine the effect of injected compounds on spindle formation, oocytes were fixed 17 h after GV release and stained for alpha-tubulin (green) and DNA (blue).

[2] = target: T1, Aurora A (active), T288 phosphorylated (Homo sapiens, UniProt O14965); assay: Lanthascreen Eu Kinase FRET binding assay; conditions: T288 phosphorylated Aurora A; read-out: Aurora A (active) IC50 (μM), binding assay
T1 construct: For enzyme and DSF assays, full-length human Aurora A and Aurora B and 1–43 TPX2 were produced; made in house; host or cells: E. coli
T1 sequence (O14965 1-403): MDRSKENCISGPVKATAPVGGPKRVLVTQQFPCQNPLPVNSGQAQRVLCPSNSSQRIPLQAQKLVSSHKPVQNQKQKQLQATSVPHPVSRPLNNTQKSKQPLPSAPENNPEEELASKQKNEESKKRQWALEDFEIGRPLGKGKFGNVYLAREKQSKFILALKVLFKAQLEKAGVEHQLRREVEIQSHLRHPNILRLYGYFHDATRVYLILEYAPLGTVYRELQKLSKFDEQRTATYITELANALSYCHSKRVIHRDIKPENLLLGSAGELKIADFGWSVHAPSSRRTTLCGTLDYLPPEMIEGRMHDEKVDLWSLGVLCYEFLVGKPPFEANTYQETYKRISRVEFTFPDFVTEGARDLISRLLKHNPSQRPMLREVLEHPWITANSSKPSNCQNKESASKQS
Protocol: (§1) A Lanthascreen Eu Kinase FRET Binding Assay (Invitrogen) was employed to determine IC50 values for the interaction of Aurora A with CoA, dpCoA, ATP, and ADP. […] Recombinant Aurora A was incubated with Europium-conjugated anti-histidine tag antibody and an Alexa Fluor 647-labelled tracer, which binds to the ATP binding pocket of Aurora A. The close proximity of the anti-histidine (epitope-tag) antibody and the tracer results in a high degree of FRET (fluorescence resonance energy transfer) from the europium donor fluorophore to the Alexa Fluor 647 acceptor fluorophore. ATP-competitive inhibitors, such as CoA, displace the tracer from the active site, causing a loss of FRET signal. Assay set-up was performed as described by the manufacturer. Briefly, the time-resolved fluorescence resonance energy transfer assay (TR-FRET) was performed in black, low volume 384 well plates (Corning). Each well contained 5 nM kinase, 2 nM Eu-anti-His antibody and 10 nM kinase tracer 236 in kinase buffer A (50 mM Hepes pH 7.5, 10 mM MgCl2, 1 mM […], 0.01% (v/v) Brij-35), varying amounts of CoA, dpCoA, ATP, and ADP. The reaction mix was incubated for 1h at room temperature. The signal was measured at 665/620 nm emission ratio using BMG LABTECH plate reader (PHERAstar). All assays were performed using duplicates. The 11-point response curves were generated using GraphPad Prism software from the inhibition data generated.

[3] = target: T2, Aurora A (inactive), unphosphorylated (PP1-treated) (Homo sapiens, UniProt O14965); assay: Lanthascreen Eu Kinase FRET binding assay
T2 construct: For enzyme and DSF assays, full-length human Aurora A and Aurora B and 1–43 TPX2 were produced; made in house; host or cells: E. coli
T2 sequence (O14965 1-403): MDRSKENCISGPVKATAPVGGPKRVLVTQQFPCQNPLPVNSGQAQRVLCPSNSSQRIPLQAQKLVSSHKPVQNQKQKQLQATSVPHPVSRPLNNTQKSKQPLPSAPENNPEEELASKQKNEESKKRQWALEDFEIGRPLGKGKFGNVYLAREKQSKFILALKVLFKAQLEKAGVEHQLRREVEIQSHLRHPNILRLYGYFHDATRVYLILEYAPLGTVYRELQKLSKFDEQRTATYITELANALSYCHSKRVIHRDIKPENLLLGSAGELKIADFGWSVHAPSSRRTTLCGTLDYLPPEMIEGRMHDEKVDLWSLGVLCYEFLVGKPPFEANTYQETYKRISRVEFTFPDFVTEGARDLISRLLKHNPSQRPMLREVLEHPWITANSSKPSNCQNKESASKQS
Protocol: as §1

[4] = target: T3, C290A Aurora A (Homo sapiens, UniProt O14965, C290A); assay: Thermal shift assay (differential scanning fluorimetry); assay type: binding; conditions: 5 mM ATP or 5 mM CoA
T3 construct: For enzyme and DSF assays, full-length human Aurora A and Aurora B and 1–43 TPX2 were produced; made in house; host or cells: E. coli BL21 (DE3) pLysS
T3 sequence (O14965 whole entry C290A): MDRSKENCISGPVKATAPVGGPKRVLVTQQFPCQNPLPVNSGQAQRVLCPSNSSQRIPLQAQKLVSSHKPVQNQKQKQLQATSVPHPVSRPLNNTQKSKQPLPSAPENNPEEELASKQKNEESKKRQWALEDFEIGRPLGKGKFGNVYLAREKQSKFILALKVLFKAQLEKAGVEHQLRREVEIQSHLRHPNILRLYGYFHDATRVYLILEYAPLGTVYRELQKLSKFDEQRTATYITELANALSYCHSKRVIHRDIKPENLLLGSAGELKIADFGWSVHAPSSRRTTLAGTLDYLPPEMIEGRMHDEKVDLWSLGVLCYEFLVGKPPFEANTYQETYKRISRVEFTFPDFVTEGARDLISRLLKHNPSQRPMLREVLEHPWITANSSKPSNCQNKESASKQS
Protocol: (§2) Asp274Asn and Thr217Glu Aurora A mutants were generated by PCR-site directed mutagenesis, expressed and purified as described previously. Cys290Ala Aurora A was generated using standard procedures, and purified as described.
(§3) Thermal-shift assays were performed with a StepOnePlus Real-Time PCR machine (Life Technologies) using Sypro-Orange dye (Invitrogen) and thermal ramping (0.3 °C in step intervals between 25 and 94 °C). All proteins were diluted to a final concentration of 5 μM in 50 mM Tris/HCl, pH 7.4 and 100 mM NaCl in the presence or absence of the indicated concentrations of ligand (final DMSO concentration no higher than 4 % v/v). CoA, dephosphoCoA or kinase inhibitors diluted from 10 mM DMSO stocks were assayed as described previously. Normalized data were processed using the Boltzmann equation to generate sigmoidal denaturation curves, and average Tm/ΔTm values calculated as previously described using GraphPad Prism software.

[5] = target: T4, T217E Aurora A (Homo sapiens, UniProt O14965, T217E); assay: as above; assay type: binding; conditions: 5 mM ATP, 5 mM CoA or 0.1 mM MLN8237
T4 construct: For enzyme and DSF assays, full-length human Aurora A and Aurora B and 1–43 TPX2 were produced; made in house; host or cells: E. coli
T4 sequence (O14965 1-403 T217E): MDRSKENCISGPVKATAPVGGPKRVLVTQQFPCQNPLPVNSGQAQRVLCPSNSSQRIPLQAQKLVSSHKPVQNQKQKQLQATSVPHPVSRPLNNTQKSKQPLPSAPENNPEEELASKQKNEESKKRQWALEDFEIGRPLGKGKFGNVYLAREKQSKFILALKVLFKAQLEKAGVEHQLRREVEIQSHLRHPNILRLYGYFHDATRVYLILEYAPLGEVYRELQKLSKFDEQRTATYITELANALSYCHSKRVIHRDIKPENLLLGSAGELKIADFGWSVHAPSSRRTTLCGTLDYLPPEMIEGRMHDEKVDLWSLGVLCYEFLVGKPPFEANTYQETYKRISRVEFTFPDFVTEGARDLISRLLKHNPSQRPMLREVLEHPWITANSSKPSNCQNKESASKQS
Protocol: as §2, §3

[6] = target: T5, WT Aurora A (T288 phosphorylated, active) (Homo sapiens, UniProt O14965); assay: as above; assay type: binding; conditions: 5 mM ATP, 5 mM CoA or 0.1 mM MLN8237; for CoA dependent on non-reducing conditions
T5 construct: Bacterially expressed full-length His-Aurora A was used to determine the IC50 value for CoA; made in house; host or cells: E. coli BL21 (DE3) pLysS
T5 sequence (O14965 1-403): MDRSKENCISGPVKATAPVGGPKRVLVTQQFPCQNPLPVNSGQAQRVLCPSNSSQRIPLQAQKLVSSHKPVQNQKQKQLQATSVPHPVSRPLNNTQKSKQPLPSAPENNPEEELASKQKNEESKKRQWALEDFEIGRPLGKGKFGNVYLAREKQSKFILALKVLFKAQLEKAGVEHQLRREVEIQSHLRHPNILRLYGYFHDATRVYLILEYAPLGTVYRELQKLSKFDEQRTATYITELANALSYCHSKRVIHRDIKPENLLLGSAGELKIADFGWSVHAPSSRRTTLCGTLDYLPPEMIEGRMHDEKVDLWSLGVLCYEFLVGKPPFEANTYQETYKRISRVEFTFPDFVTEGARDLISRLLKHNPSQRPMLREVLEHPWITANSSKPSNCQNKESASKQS
Protocol: as §2, §3

[7] = target: T6, kinase-dead D274N (inactive) Aurora A (Homo sapiens, UniProt O14965, D274N); assay: as above; assay type: binding; conditions: 5 mM ATP or 5 mM CoA; CoA DTT-dependent
T6 construct: For enzyme and DSF assays, full-length human Aurora A and Aurora B and 1–43 TPX2 were produced; 6His (N); made in house; host or cells: E. coli
T6 sequence (O14965 whole entry D274N): as the sequence (O14965 whole entry C290A) above, with D274N, A290C counted along it
Protocol: as §2, §3

[8] = target: T7, Aurora A (active) (Homo sapiens, UniProt O14965); assay: In vitro Aurora A kinase assay (γ33P-ATP incorporation into myelin basic protein); assay type: biochemical; conditions: 5 μM ATP, absence of DTT; read-out: IC50, Aurora A kinase activity
T7 construct: Bacterially expressed full-length His-Aurora A was used to determine the IC50 value for CoA; made in house; host or cells: E. coli BL21 (DE3) pLysS
T7 sequence (O14965 1-403): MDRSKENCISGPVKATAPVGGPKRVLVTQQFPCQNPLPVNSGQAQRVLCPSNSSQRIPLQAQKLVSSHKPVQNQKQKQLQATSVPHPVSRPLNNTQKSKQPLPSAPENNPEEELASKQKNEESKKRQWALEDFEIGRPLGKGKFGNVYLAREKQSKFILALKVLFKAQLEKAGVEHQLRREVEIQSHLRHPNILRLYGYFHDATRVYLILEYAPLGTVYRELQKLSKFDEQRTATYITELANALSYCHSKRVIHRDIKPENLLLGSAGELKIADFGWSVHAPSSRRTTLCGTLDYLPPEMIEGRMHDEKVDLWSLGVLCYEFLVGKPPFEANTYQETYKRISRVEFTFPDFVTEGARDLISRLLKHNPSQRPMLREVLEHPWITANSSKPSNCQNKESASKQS
Protocol: Profiling of 117 protein kinases with CoA, dpCoA and ADP was carried out at the International Centre for Protein Kinase Profiling at the University of Dundee. Each compound was tested in vitro, in duplicate, at 100 μM final concentration using recombinant kinases, model substrates and optimal concentrations of ATP. Bacterially expressed full-length His-Aurora A was used to determine the IC50 value for CoA (in the presence or absence of DTT), dpCoA, ADP and desulfo-CoA. The assay was performed in the presence of 5 μM competing ATP. To examine whether the inhibitory effect of CoA on Aurora A is modulated by TPX2, IC50 values for CoA were also generated in the presence and absence of 1 μg TPX2 (residues 1–43) fragment.
Aurora A kinase activity was assayed by measuring incorporation of γ^33P-ATP into myelin basic protein (Sigma). Purified recombinant protein (100 ng) was incubated at room temperature for 30 min in a total volume of 15 μl containing 50 mM HEPES pH 7.5, 10 mM MgCl2, 1 mM EGTA, 0.05% Brij-35, 0.5 mg/ml myelin basic protein, and 5 μM γ^33P-ATP (100–10,000 dpm/pmol). The reaction was stopped by spotting the reaction mixture onto squares of P81 phosphocellulose ion exchange paper (Whatmann), which were then immersed in 1.5% (v/v) phosphoric acid. After washing twice in 1% phosphoric acid followed by two washes in distilled water, the papers were air dried and radioactivity was counted by a scintillation counter and recorded by Quantasmart version 2.03.

[9] = system: FLAG-tagged Aurora A in HEK293/Pank1β cells; assay: Aurora A CoAlation in cells treated with oxidising agents (FLAG immunoprecipitation, anti-CoA immunoblot); assay type: cell-based, human; conditions: 30 min; 250 μM H2O2, 500 μM diamide, 50 μM menadione, 10 μM phenylarsine oxide
[10] = system: FLAG-tagged Aurora A in HEK293/Pank1β cells; assay: Aurora A Thr 288 phosphorylation and dimerization in cells treated with oxidising agents (immunoblot); assay type: cell-based, human; conditions: 30 min treatment

Nc1ncnc2c1ncn2[C@@H]1O[C@H](COP(=O)(O)O)[C@@H](O)[C@H]1O [AMP]
Disruption of bipolar spindle formation and chromosome alignment [1]: not

Nc1ncnc2c1ncn2[C@@H]1O[C@H](COP(=O)(O)OP(=O)(O)OP(=O)(O)O)[C@@H](O)[C@H]1O [ATP]
IC50 [2]: 0.2 µM | IC50 [3]: 3 µM | Ligand binding / thermal stabilization [4]: still bound | Ligand-induced thermal shift [5]: stabilization | Change in thermal stability (ΔTm) [6]: marked change in thermal stability | Ligand interaction by thermal shift [7]: severely blunted

COc1cc(Nc2ncc3c(n2)-c2ccc(Cl)cc2C(c2c(F)cccc2OC)=NC3)ccc1C(=O)O [MLN8237, alisertib]
Ligand-induced thermal shift [5]: stabilization | Change in thermal stability (ΔTm) [6]: marked change in thermal stability

CCNC(=O)CCNC(=O)[C@H](O)C(C)(C)COP(=O)(O)OP(=O)(O)OC[C@H]1O[C@@H](n2cnc3c(N)ncnc32)[C@H](O)[C@@H]1OP(=O)(O)O [desulfo-CoA]
IC50 [8]: 160 µM

CN(C)C(=O)/N=N/C(=O)N(C)C [diamide]
CoAlation of transiently expressed Aurora A in cells [9]: strongly induced | Formation of Aurora A dimers in cells ([10]; non-reducing conditions): clearly observed | Aurora A phosphorylation at Thr 288 in cells ([10]; samples separated in the presence of DTT): promoted an increase
